Measured values as given in PubChem BioAssay AID1963977 (Molecular Pharmacology Branch, DTP, NCI, 2024).
pIC50: −log10 of the molar value.

Tested on: 624824-186-R-J3-PDC multicell spheroids, viability
Experiment: Anticancer human tumor 624824-186-R-J3-PDC patient-derived colon adenocarcinoma cell line growth inhibition [PI3K]
Settings: for pIC50: curve of first compound; for viability, T/C: stronger effect = lower value; active = viability on the fitted dose curve at most 10% of control; inactive = the rest
Procedure, shortened: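 Combination activity was assessed by viability in multicellular tumor spheroids carrying HUVEC and MSC components. Agents were tested with PI3K inhibitors from a Cmax-based top dose (or 10 microM) downward in half-log increments.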

[1] = second compound 0.0316 µM, first compound 0.0316 µM
[2] = second compound 0.0316 µM, first compound 0.1 µM
[3] = second compound 0.0316 µM, first compound 0.316 µM
[4] = second compound 0.0316 µM, first compound 1 µM
[5] = second compound 0.0316 µM, first compound 3.16 µM
[6] = second compound 0.0316 µM, first compound 10 µM
[7] = second compound 0.1 µM, first compound 0.0316 µM
[8] = second compound 0.1 µM, first compound 0.1 µM
[9] = second compound 0.1 µM, first compound 0.316 µM
[10] = second compound 0.1 µM, first compound 1 µM
[11] = second compound 0.1 µM, first compound 3.16 µM
[12] = second compound 0.1 µM, first compound 10 µM
[13] = second compound 0.316 µM, first compound 0.0316 µM
[14] = second compound 0.316 µM, first compound 0.1 µM
[15] = second compound 0.316 µM, first compound 0.316 µM
[16] = second compound 0.316 µM, first compound 1 µM
[17] = second compound 0.316 µM, first compound 3.16 µM
[18] = second compound 0.316 µM, first compound 10 µM
[19] = second compound 1 µM, first compound 0.0316 µM
[20] = second compound 1 µM, first compound 0.1 µM
[21] = second compound 1 µM, first compound 0.316 µM
[22] = second compound 1 µM, first compound 1 µM
[23] = second compound 1 µM, first compound 3.16 µM
[24] = second compound 1 µM, first compound 10 µM
[25] = second compound 3.16 µM, first compound 0.0316 µM
[26] = second compound 3.16 µM, first compound 0.1 µM
[27] = second compound 3.16 µM, first compound 0.316 µM
[28] = second compound 3.16 µM, first compound 1 µM
[29] = second compound 3.16 µM, first compound 3.16 µM
[30] = second compound 3.16 µM, first compound 10 µM
[31] = second compound 10 µM, first compound 0.0316 µM
[32] = second compound 10 µM, first compound 0.1 µM
[33] = second compound 10 µM, first compound 0.316 µM
[34] = second compound 10 µM, first compound 1 µM
[35] = second compound 10 µM, first compound 3.16 µM
[36] = second compound 10 µM, first compound 10 µM
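Note: spheroids exposed to agents for seven days before luminescence read.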
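Throughout, for viability, T/C: luminescent signal used as a stand-in for spheroid viability; percent viability relative to DMSO vehicle control wells taken as 100%.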

CC(Cn1ccc(-c2ccc(C#N)c(Cl)c2)n1)NC(=O)c1cc(C(C)O)[nH]n1 (stereo unspecified) + Cc1nc(NC(=O)N2CCCC2C(N)=O)sc1-c1ccnc(C(C)(C)C(F)(F)F)c1
< 5.00: pIC50 (second compound 0.0316 µM) | pIC50 (second compound 0.1 µM) | pIC50 (second compound 0.316 µM) | pIC50 (second compound 1 µM) | pIC50 (second compound 3.16 µM) | pIC50 (second compound 10 µM)
inactive: viability, T/C [1] 101% | viability, T/C [2] 107% | viability, T/C [3] 102% | viability, T/C [4] 104% | viability, T/C [5] 104% | viability, T/C [6] 113% | viability, T/C [7] 108% | viability, T/C [8] 105% | viability, T/C [9] 108% | viability, T/C [10] 102% | viability, T/C [11] 107% | viability, T/C [12] 109% | viability, T/C [13] 107% | viability, T/C [14] 101% | viability, T/C [15] 104% | viability, T/C [16] 93.1% | viability, T/C [17] 115% | viability, T/C [18] 107% | viability, T/C [19] 111% | viability, T/C [20] 101% | viability, T/C [21] 109% | viability, T/C [22] 101% | viability, T/C [23] 101% | viability, T/C [24] 98.7% | viability, T/C [25] 86.4% | viability, T/C [26] 91.5% | viability, T/C [27] 88.3% | viability, T/C [28] 91.4% | viability, T/C [29] 79.3% | viability, T/C [30] 86.1% | viability, T/C [31] 72.4% | viability, T/C [32] 75.6% | viability, T/C [33] 66.5% | viability, T/C [34] 67.3% | viability, T/C [35] 67.3% | viability, T/C [36] 62.4%

CC1(C)CCC(Nc2ncc(C(F)(F)F)c(-c3c[nH]c4c(P(C)(C)=O)c(C#N)ccc34)n2)CN1 (stereo unspecified) + Cc1nc(NC(=O)N2CCCC2C(N)=O)sc1-c1ccnc(C(C)(C)C(F)(F)F)c1
> 7.50: pIC50 (second compound 10 µM)
5.25: pIC50 (second compound 0.0316 µM)
5.29: pIC50 (second compound 0.316 µM)
5.74: pIC50 (second compound 3.16 µM)
active: viability, T/C [6] 4.64% | viability, T/C [12] 4.24% | viability, T/C [18] 4.3% | viability, T/C [24] 3.52% | viability, T/C [30] 2.38%
5.27: pIC50 (second compound 0.1 µM)
inactive: viability, T/C [1] 113% | viability, T/C [2] 92% | viability, T/C [3] 106% | viability, T/C [4] 101% | viability, T/C [5] 95% | viability, T/C [7] 107% | viability, T/C [8] 89.9% | viability, T/C [9] 110% | viability, T/C [10] 102% | viability, T/C [11] 90.3% | viability, T/C [13] 97.5% | viability, T/C [14] 103% | viability, T/C [15] 88% | viability, T/C [16] 92.2% | viability, T/C [17] 84.5% | viability, T/C [19] 76.1% | viability, T/C [20] 75.9% | viability, T/C [21] 79.3% | viability, T/C [22] 79.4% | viability, T/C [23] 72.3% | viability, T/C [25] 59.1% | viability, T/C [26] 54.3% | viability, T/C [27] 53.7% | viability, T/C [28] 55.3% | viability, T/C [29] 45.6% | viability, T/C [31] 35.5% | viability, T/C [32] 34.1% | viability, T/C [33] 36.2% | viability, T/C [34] 34% | viability, T/C [35] 39% | viability, T/C [36] 1.61%
5.34: pIC50 (second compound 1 µM)

Cn1nccc1Nc1nccc(-c2ccn(C(CO)c3ccc(Cl)c(F)c3)c(=O)c2)n1 (stereo unspecified) + Cc1nc(NC(=O)N2CCCC2C(N)=O)sc1-c1ccnc(C(C)(C)C(F)(F)F)c1
active: viability, T/C [35] 10.9% | viability, T/C [36] 7.57%
5.09: pIC50 (second compound 0.0316 µM)
5.80: pIC50 (second compound 0.316 µM)
6.65: pIC50 (second compound 3.16 µM)
7.00: pIC50 (second compound 10 µM)
inactive: viability, T/C [1] 119% | viability, T/C [2] 105% | viability, T/C [3] 90.7% | viability, T/C [4] 74.7% | viability, T/C [5] 55% | viability, T/C [6] 49.5% | viability, T/C [7] 109% | viability, T/C [8] 104% | viability, T/C [9] 83.6% | viability, T/C [10] 73% | viability, T/C [11] 56.3% | viability, T/C [12] 40.9% | viability, T/C [13] 106% | viability, T/C [14] 110% | viability, T/C [15] 78% | viability, T/C [16] 58% | viability, T/C [17] 42% | viability, T/C [18] 31.8% | viability, T/C [19] 103% | viability, T/C [20] 89.5% | viability, T/C [21] 72.7% | viability, T/C [22] 43.2% | viability, T/C [23] 29.6% | viability, T/C [24] 25.4% | viability, T/C [25] 84.5% | viability, T/C [26] 77.7% | viability, T/C [27] 37.6% | viability, T/C [28] 21.3% | viability, T/C [29] 17.8% | viability, T/C [30] 16.2% | viability, T/C [31] 62.2% | viability, T/C [32] 50.4% | viability, T/C [33] 27.3% | viability, T/C [34] 14.1%
5.30: pIC50 (second compound 0.1 µM)
6.11: pIC50 (second compound 1 µM)
